Legend:
s-MDA-MB-231 = test: Tumor volume in breast cancer animal model injected with cancer stem cells (S231); format: in vivo, BALB/c nude mice; conditions: for tumor volume: in mm³ (unit assumed)
Method: (§1) In order to identify a therapeutic method effective against cancer stem cells, breast cancer animal models were constructed. For construction of the breast cancer animal models, each of breast cancer cells (p-MDA-MB-231 and p-MCF-7) and breast cancer stem cell lines (s-MDA-MB-231 and s-MCF-7) was cultured in vitro, and the cultured cells were injected into the upper left flank of 5-6-week-old BALB/c nude mice at a density of 1.0×10^7 cells/mouse. Then, the mice were housed at 22° C. under a 12-hr light/12-hr dark cycle for 7 days while they were fed with water and feed, thereby constructing breast cancer animal models.

p-MDA-MB-231 = test: Tumor volume in breast cancer animal model injected with ordinary cancer cells (P231); format: in vivo, BALB/c nude mice
Method: as §1

cancer stem cells [1] = test: TUNEL assay (apoptosis, DNA fragmentation) in cancer stem cells under nutrient deprivation; format: cell-based; conditions: 10 μM
Method: In order to examine whether the reason why cancer stem cells show high viability under nutrient deprivation is because of their resistance to apoptosis, each of p-MDA-MB-231, p-MCF-7, s-MDA-MB-231 and s-MCF-7 cell lines, cultured under glucose deprivation for 40 hours in the same manner as described in Example 2, was collected and subjected to a TUNEL assay. In the TUNEL assay, the collected cells were fixed with 4% paraformaldehyde solution for 48 hours, and then stained using a Terminal Deoxynucleotidyl Transferase dUTP Nick end Labeling (TUNEL) kit according to the manufacturer's protocol, and the fluorescence images of the cells were acquired with a fluorescence microscope and analyzed using Zeiss LSM Image Browser software program. […]
(§2) In order to examine an effect which occurs when CaMK-2α signaling is inhibited, the cancer stem cells were treated with 10 μM of KN62 (1-[N,O-bis(5-isoquinolinesulfonyl)-N-methyl-L-tyrosyl]-4-phenylpiperazine) well known as an inhibitor of CaMK-2α, and then a TUNEL assay was performed in the same manner as described in Example 3.1 to examine apoptosis and DNA fragmentation. In addition, Western blotting was performed in the same manner as described in Example 3.2 to examine the expression of genes, and the viability of the cells was measured in the same manner as described in Example 2.

cancer stem cells [2] = test: Immunoblot analysis (Western blotting) of cancer stem cells under nutrient deprivation; format: cell-based; conditions: 10 μM
Method: In order to examine whether apoptosis-related proteins are involved in apoptotic resistance which is the reason why the cancer stem cells show high viability under nutrient deprivation, each of p-MDA-MB-231, p-MCF-7, s-MDA-MB-231 and s-MCF-7 cell lines, cultured under glucose deprivation for 40 hours in the same manner as described in Example 2, was collected and subjected to immunoblot analysis. The collected cells were washed twice with chilled PBS (phosphate buffered saline) buffer, and lysed with RIPA buffer to isolate protein. For the next experiment, the amount of the isolated protein was measured by a BCA assay. 20 μg of the protein obtained from each of the cell lines was electrophoresed on 8-10% SDS-polyacrylamide gel and transferred to a PVDF membrane using electricity. The protein-transferred PVDP membranes were treated with 5% skim milk at room temperature for 1 hour, and then incubated with a primary antibody against each of caspase-3, caspase-7, Bcl-2 and beta-actin (control) at 4° C. for 16 hours. The PVDP membranes incubated with the antibodies were washed three times with TBST buffer to remove unbound primary antibodies, and were further incubated with HPR-conjugated secondary antibodies at room temperature for 1 hour. After completion of the incubation, the membranes were washed with TBST buffer to completely remove the secondary antibodies, and were treated with ECL buffer and incubated for 3 minutes, followed by exposure to Kodak X-OMAT AR Film. […]
as §2

cancer stem cells [3] = test: Extracellular Ca2+ concentration of cancer stem cells after PMCA or SERCA inhibition; format: cell-based; conditions: nutrient deprivation
From the text: In order to examine whether the calcium concentration regulatory ability of the cancer stem cells is changed when PMCA is inhibited under nutrient deprivation, the activity of PMCA and SERCA was inhibited by using caloxin (which is a calcium pump inhibitor) as an inhibitor of PMCA acting as Ca^2+-ATPase (calcium ATPase) in the plasma membrane and using thapsigargin which is an inhibitor of SERCA (sarco/endoplasmic reticulum Ca^2+-ATPase) acting as Ca^2+-ATPase (calcium ATPase), and then changes in the extracellular Ca^2+ concentrations of the cancer stem cells were measured.

cancer stem cells [4] = test: Viability of cancer stem cells under nutrient deprivation after PMCA or SERCA inhibition; format: cell-based
Method: In order to compare the viabilities of cancer cells and cancer stem cells under glucose deprivation, each of p-MDA-MB-231, p-MCF-7, s-MDA-MB-231 and s-MCF-7 cell lines, prepared in the same manner as described in Example 1, was added to a 96-well plate at a concentration of 5×10^3 cells/100 μL and cultured to a confluence of about 70%, and then the medium was replaced with a glucose-deprived in RPMI-1640 medium containing 10% FBS, and the cells were further cultured for 3 days. At each of 0, 12, 24, 36, 48, 60 and 72 hours, the viability of each of the cell lines was determined by crystal violet staining and an MTT (3-(4,5-dimethylthiazol-2-yl)-2,5-diphenyltetrazolium bromide) assay. In order to examine whether the calcium concentration regulatory ability of the cancer stem cells is changed when PMCA is inhibited under nutrient deprivation, the activity of PMCA and SERCA was inhibited by using caloxin (which is a calcium pump inhibitor) as an inhibitor of PMCA acting as Ca^2+-ATPase (calcium ATPase) in the plasma membrane and using thapsigargin which is an inhibitor of SERCA (sarco/endoplasmic reticulum Ca^2+-ATPase) acting as Ca^2+-ATPase (calcium ATPase), and then changes in the extracellular Ca^2+ concentrations of the cancer stem cells were measured.

O=CC[C@@H](O)[C@H](O)[C@H](O)CO [2DG, 2-deoxyglucose]
tumor volume (s-MDA-MB-231; S231, day 7, i.p. once a day, 2DG 500 mg/kg, metformin 250 mg/kg, caloxin 2al 200 mg/kg): 228.5 ± 23
tumor volume (s-MDA-MB-231; S231, day 10, same dosing): 277.6 ± 21
tumor volume (s-MDA-MB-231; S231, day 13, same dosing): 474.4 ± 31
tumor volume (s-MDA-MB-231; S231, day 16, same dosing): 539.2 ± 33
tumor volume (s-MDA-MB-231; S231, day 19, same dosing): 638.2 ± 49
tumor volume (s-MDA-MB-231; S231, day 22, same dosing): 777.0 ± 35
tumor volume (s-MDA-MB-231; S231, day 25, same dosing): 911.6 ± 35
tumor volume (s-MDA-MB-231; S231, day 28, same dosing): 1077.4 ± 68
tumor volume (s-MDA-MB-231; S231, day 31, same dosing): 1290.6 ± 72
tumor volume (s-MDA-MB-231; S231, day 34, same dosing): 1722.1 ± 69
tumor volume (s-MDA-MB-231; S231, day 37, same dosing): 2471.7 ± 81
tumor volume (s-MDA-MB-231; S231, day 40, same dosing): 3173.2 ± 105
tumor volume (s-MDA-MB-231; S231, day 43, same dosing): 4065.2 ± 119
tumor volume compared to control group (in words) (s-MDA-MB-231; cancer stem cell model): slightly decreased
tumor volume (p-MDA-MB-231; P231, day 7, i.p. once a day, 2DG 500 mg/kg, metformin 250 mg/kg, caloxin 2al 200 mg/kg, in mm³ (unit assumed)): 219.1 ± 35
tumor volume (p-MDA-MB-231; P231, day 10, same dosing): 302 ± 49
tumor volume (p-MDA-MB-231; P231, day 13, same dosing, in mm³ (unit assumed)): 337.6 ± 47
tumor volume (p-MDA-MB-231; P231, day 16, same dosing, in mm³ (unit assumed)): 388.6 ± 47
tumor volume (p-MDA-MB-231; P231, day 19, same dosing, in mm³ (unit assumed)): 440.7 ± 45
tumor volume (p-MDA-MB-231; P231, day 22, same dosing, in mm³ (unit assumed)): 513.4 ± 46
tumor volume (p-MDA-MB-231; P231, day 25, same dosing, in mm³ (unit assumed)): 621.4 ± 50
tumor volume (p-MDA-MB-231; P231, day 28, same dosing, in mm³ (unit assumed)): 834.4 ± 48
tumor volume (p-MDA-MB-231; P231, day 31, same dosing, in mm³ (unit assumed)): 1142.7 ± 50
tumor volume (p-MDA-MB-231; P231, day 34, same dosing, in mm³ (unit assumed)): 1547.4 ± 57
tumor volume (p-MDA-MB-231; P231, day 37, same dosing, in mm³ (unit assumed)): 1944.2 ± 64
tumor volume (p-MDA-MB-231; P231, day 40, same dosing, in mm³ (unit assumed)): 2359.0 ± 48
tumor volume (p-MDA-MB-231; P231, day 43, same dosing, in mm³ (unit assumed)): 2866.1 ± 45

CN([C@@H](Cc1ccc(OS(=O)(=O)c2cccc3cnccc23)cc1)C(=O)N1CCN(c2ccccc2)CC1)S(=O)(=O)c1cccc2cnccc12 [KN62, 1-[N,O-bis(5-isoquinolinesulfonyl)-N-methyl-L-tyrosyl]-4-phenylpiperazine]
apoptosis (TUNEL assay) (cancer stem cells [1]): inducing apoptosis
expression of IP3R (cancer stem cells [2]): inhibited
expression of SERCA2 (cancer stem cells [2]): increased
phosphorylation of NF-kB (cancer stem cells [2]): did not occur

C/C=C(/C)C(=O)O[C@H]1C(C)=C2[C@H]([C@@H]1OC(=O)CCCCCCC)[C@@](C)(OC(C)=O)C[C@H](OC(=O)CCC)[C@@]1(O)[C@H]2OC(=O)[C@@]1(C)O [thapsigargin]
extracellular calcium concentration of the cancer stem cells (cancer stem cells [3]): maintained at a high level
viability of the cells (cancer stem cells [4]): also high

Source: US20170312333A1, “Composition for Treating Cancer Stem Cells” (Industry-Academic Corporation Foundation, Yonsei University, priority 2014, published 2017)
